From article PMC4205289, “Triptolide inhibits human immunodeficiency virus type 1 replication by promoting proteasomal degradation of Tat protein” (Retrovirology, 2014)
Entries after “also recorded” stand apart in the source; their conditions may differ. Like-named read-outs stand apart in the source and are kept apart here.

How the values were obtained:
Assay type in all cases: cell-based
HIV-1 NL4-3 [1] = experiment: microbe, parasite or virus in culture
Method: The anti-HIV-1 activities of compounds were evaluated in a variety of assays, including the TZM-bl assay, reporter virus assay, and PBMCs-based antiviral assay. In the TZM-bl assay, TZM-bl cells were plated at a density of 1 × 10^4 cells per well in 96-well tissue culture plates one day before infection. On the day of the experiment, the cell supernatant was removed, and 100 μL of each serially diluted compounds was added were added. HIV-1 NL4-3 in 50 μL of complete medium was then added to each well to achieve a multiplicity of infection (MOI) of 0.5. At 48 h post-infection, the luciferase activity in the cells was analyzed with the SteadyGlo reagent (Promega) according to manufacturer’s instructions. The luminescent signal was measured using the EnVison 2102 Multilabel Reader (Perkin Elmer).

HIV-1-Luc = experiment: microbe, parasite or virus in culture
Method: In the antiviral assay with the HIV-1 reporter virus, Jurkat cells were seeded at a density of 2 × 10^4 cells per well in 96-well tissue culture plates and infected with HIV-1-Luc at an MOI of 0.5 in the presence or absence of the test compounds. At 48 h post-infection, luciferase activity in the cells was determined and EC50 values were calculated as described above.

HIV-1 NL4-3 [2] = experiment: PBMC antiviral assay, p24 ELISA; settings: for EC50: Human immunodeficiency virus 1, NL43, PBMC, 144 h, p24, day 6 post-infection; for selectivity ratio at 6 days: human, read-out: SI (selective index, CC50/EC50)
Method: In the antiviral assay using PBMCs, determination of the anti-HIV-1 activity of a particular compound was based on the inhibition of HIV-1 capsid protein (p24) production. After isolation, PBMCs were stimulated with phytohemagglutinin (2 μg/ml, Sigma-Aldrich) and interleukin-2 (20 U/mL, Sigma-Aldrich) in RPMI 1640 complete medium for three days and were then maintained with interleukin-2 during viral infection. PBMCs were infected with HIV-1 NL4-3 (MOI = 0.01). After viral adsorption for 2 h, the cells were washed thoroughly with culture medium to remove unabsorbed viral particles. The infected cells (2 × 10^5 cells/well) were cultured in 96-well plates in the presence of or absence of the test compound. At two, four, six, and eight days post-infection, half of the culture supernatant was collected and replaced with fresh medium containing the test compounds. The level of viral replication was determined with an HIV-1 p24 antigen capture enzyme-linked immunosorbent assay (ELISA).

[3] = Cytotoxicity, CellTiter-Glo; settings: human; for CC50 at 6 days: PBMCs, mock-infected cell viability
Method: (§1) The cytotoxicity of the tested compounds was evaluated in parallel with their antiviral assays using the CellTiter-Glo reagent (Promega) according to the manufacturer’s protocol. The 50% cytotoxic concentrations (CC50s) is the compound concentration that reduced cell viability by 50%.

PBMCs = experiment: Cytotoxicity, CellTiter-Glo
Method: as §1

TZM-bl cells = experiment: Cytotoxicity, CellTiter-Glo; settings: TZM-bl, all tested concentrations, in parallel with antiviral assay
Method: as §1

[4] = test system: HIV-1 molecular clone pNL4-3.Luc.R-E-; experiment: Transient gene expression assay, pNL4-3.Luc.R-E- transfected into Jurkat cells; settings: 24 h, 118-D-24 50 μM, flavopiridol 20 nM, triptolide 0.2 ~ 5 nM
Method: Figure 3 Triptolide inhibits HIV-1 transcription. (A) Time-of-addition analysis. TZM-bl cells were infected with HIV-1 (MOI = 0.5, strain NL4-3), and the virus inoculum was removed after 1 h of absorption. Test compounds (dextran sulfate at 10 μg/mL, zidovudine at 1 μM and triptolide at 5 nM) were added at the indicated time points after infection. Reporter signal was monitored at 48 h post-infection as a measure of viral replication. (B) The effect of triptolide on HIV-1 proviral DNA formation. Jurkat cells were infected with HIV-1 (MOI = 0.5, strain NL4-3) in the presence of the test compounds (INI 118-D-24, 50 μM; flavopiridol, 20 nM; and triptolide, 5 nM). Proviral DNA synthesis was determined by nested PCR analysis at 12 h post-infection. (C) The effect of triptolide on HIV-1 mRNA synthesis. Jurkat cells were infected with HIV-1(MOI = 0.5, strain NL4-3) in the presence of the test compounds (INI 118-D-24, 50 μM; flavopiridol, 20 nM; triptolide, 5 nM). Viral mRNA (the Gag region) content was determined by reverse-transcription PCR analysis 12 h post-infection. (D) Inhibition of luciferase expression encoded in pNL4-3.Luc.R-E- by tiptolide. […]
To further confirm that triptolide interferes with HIV-1 transcription, a transient gene expression assay was performed. […] At 24 h after transfection, viral gene transcription (indicated by luciferase activity) was determined. […]

[5] = test system: TNF-α-induced HIV-1 LTR activation; experiment: HIV-1 LTR-luciferase reporter assay, TNF-α-induced, Jurkat cells; settings: TNF-α 10 ng/mL, tested concentrations up to 5 nM
Method: Jurkat cells were seeded in 24-well plates at a density of 2 × 10^5 cells per well. For TNF-α induction, cells were co-transfected with pLTR-Luc and pRL-TK in the presence or absence of the test compounds. Then, the cells were treated with 10 ng/mL TNF-α 36 h post-transfection. After induction for an additional 12 h, luciferase activity was analyzed. For Tat-induced LTR activation, Jurkat cells were co-transfected with pLTR-Luc (or pLTR-Luc-ΔkB), pEF1-Tat and pRL-TK, and cultured in the presence of various concentrations of test compounds for an additional 48 h before the determination of luciferase activity. Luciferase levels were expressed relative to levels in cells without induction.

With `CC(C)[C@]12O[C@H]1[C@@H]1O[C@]13[C@]1(O[C@H]1C[C@H]1C4=C(CC[C@@]13C)C(=O)OC4)[C@@H]2O` [triptolide] the EC50 (HIV-1 NL4-3 [1]; Human immunodeficiency virus 1, NL43, HIV-1 NL4-3, TZM-bl, luciferase, MOI 0.5, 48 h post-infection) was 0.32 nM, the “reduction of luciferase expression” value (HIV-1 NL4-3 [1]; at 5 nM, TZM-bl, HIV-1 NL4-3) was 97.9% and the selectivity ratio at 48 h (HIV-1 NL4-3 [1]; human, HIV-1 NL4-3, TZM-bl, read-out: SI (selective index, CC50/EC50)) was 79.4. The EC50 (HIV-1-Luc; Human immunodeficiency virus 1, Jurkat, 48 h) was 0.45 nM, the selectivity ratio at 48 h (HIV-1-Luc; human, HIV-1-Luc, Jurkat, read-out: SI (selective index, CC50/EC50)) was 30.9 and the EC50 (HIV-1 NL4-3 [2]; HIV-1 NL4-3, PBMC donor A) was 1.1 nM. It also gave an EC50 (HIV-1 NL4-3 [2]; HIV-1 NL4-3, PBMC donor B) of 0.9 nM, an EC50 (HIV-1 NL4-3 [2]; HIV-1 NL4-3, PBMC donor C) of 1.3 nM and a selectivity ratio at 6 days (HIV-1 NL4-3 [2]; HIV-1 NL4-3, PBMC donor A) of 11.5. The selectivity ratio at 6 days (HIV-1 NL4-3 [2]; HIV-1 NL4-3, PBMC donor B) was 17, the selectivity ratio at 6 days (HIV-1 NL4-3 [2]; HIV-1 NL4-3, PBMC donor C) was 8.6 and the CC50 ([3]; Jurkat cells, mock-infected Jurkat cell viability) was 13.9 nM. It also gave a CC50 at 6 days ([3]; PBMC donor A) of 12.6 nM, a CC50 at 6 days ([3]; PBMC donor B) of 15.3 nM and a CC50 at 6 days ([3]; PBMC donor C) of 11.2 nM. The CC50 ([3]; TZM-bl cells, mock-infected TZM-bl cell viability) was 25.4 nM, the maximum non-toxic concentration (PBMCs) was 4 nM and the “toxicity in cell viability assay” value (TZM-bl cells) was “no obvious toxicity”. For the same molecule, the “effect on luciferase expression from transfected pNL4-3.Luc.R-E-” value [4] was “inhibited reporter expression in a dose-dependent manner” and the “effect on TNF-α induced gene expression” value [5] was “no effect on TNF-α induced gene expression; also recorded: not active”.
